Experimental data published in patent US20180273528A1 (LES LABORATOIRES SERVIER, priority 2015, published 2018).

Legend:
[1] = target: T1, DYRK1A (Homo sapiens, UniProt Q13627); experiment: Cellular DYRK1 autophosphorylation assay in U2-OS cells; format: cell-based; design: full-length, wild-type human DYRK1A (NM_001396) with an HA tag; expressed in transfected cells; host or cells: human U2-OS osteosarcoma cells, transient transfection of a pcDNA3.1 plasmid; details: U2-OS cells transfected with HA-tagged human DYRK1A, 5 hours exposure; read-out: IC50 (μM) P-Ser520-Dyrk1A -Cell assay
Method in brief: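 U2-OS cells treated with a compound concentration range for 5 h. Phospho-Ser520-DYRK1A measured by western blot densitometry or Mesoscale ELISA. IC50 from dose-response curves; for blots, ratio of phospho-Ser520 to total DYRK1A signal.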

[2] = target: T2, His-TEV-DYRK1A Kinase domain (aa127-485) (Homo sapiens, UniProt Q13627); experiment: Kinase ADP assay (ADP Hunter), DYRK1A kinase domain; format: biochemical; details: 20 μM ATP
T2 construct: His-TEV-DYRK1A Kinase domain (aa127-485); His tag (N); TEV protease cleavage site (N)
Method in brief: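 Compounds incubated 10 min at 30 °C with 20 nM enzyme, 40 μM peptide substrate and 20 μM ATP in pH 7.4 Hepes buffer with 10 mM MgCl2. ADP formed detected by ADP Hunter Plus reagents after 20 min at 30 °C, fluorescence read at 590 nm.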

[3] = target: T3, CLK1 (Homo sapiens, UniProt P49759); experiment: Kinase TR-FRET assay, CLK1; format: biochemical; details: full-length human kinase, 10 μM ATP
T3 construct: full-length human kinases from Carna Biosciences; purchased Carna Biosciences 04-126
T3 sequence (P49759 1-526 isoform P49759-3): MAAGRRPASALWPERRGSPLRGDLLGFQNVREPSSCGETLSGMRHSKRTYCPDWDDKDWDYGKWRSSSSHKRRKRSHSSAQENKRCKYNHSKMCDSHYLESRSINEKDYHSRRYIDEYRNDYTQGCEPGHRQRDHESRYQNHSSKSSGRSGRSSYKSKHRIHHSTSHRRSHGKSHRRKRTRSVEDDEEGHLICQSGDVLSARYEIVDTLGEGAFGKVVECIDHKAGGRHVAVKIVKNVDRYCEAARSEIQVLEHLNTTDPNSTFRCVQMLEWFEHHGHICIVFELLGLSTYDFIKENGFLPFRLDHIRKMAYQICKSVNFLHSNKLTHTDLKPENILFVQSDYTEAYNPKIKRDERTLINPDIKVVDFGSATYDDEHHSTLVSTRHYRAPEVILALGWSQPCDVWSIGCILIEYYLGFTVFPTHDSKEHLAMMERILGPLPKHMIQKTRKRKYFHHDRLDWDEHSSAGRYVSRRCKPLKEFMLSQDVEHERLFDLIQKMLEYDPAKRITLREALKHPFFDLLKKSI
Experimental: Inhibition of the enzymatic activity of human kinases was evaluated in a Time-Resolved Fluorescence Resonance Energy Transfer (TR-FRET) assay in 384-well reaction plates. […] Test compounds of the invention were added in reaction buffer at a range of concentrations from 0.1 nM to 30 μM. Following addition of EDTA (Sigma E7889, 10 mM) to stop the reaction, Europium-labelled mouse monoclonal antibody recognizing phospho-Thr232 in MBP (Perkin Elmer TRF0201, 1 nM) was added.

[4] = target: T1, DYRK1A; experiment: Kinase TR-FRET assay, DYRK1A; format: biochemical; design: full-length, wild-type human DYRK1A (NM_001396) with an HA tag; expressed in transfected cells; host or cells: human U2-OS osteosarcoma cells, transient transfection of a pcDNA3.1 plasmid; details: full-length human kinase, 10 μM ATP
Method in brief: (§1)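 Compounds tested at 0.1 nM to 30 μM in reaction buffer; reaction stopped with 10 mM EDTA. Phosphorylated MBP detected with 1 nM Europium-labelled anti-phospho-Thr232 antibody by TR-FRET.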

[5] = target: T4, DYRK1B (Homo sapiens, UniProt Q9Y463); experiment: Kinase TR-FRET assay, DYRK1B; format: biochemical; details: full-length human kinase, 10 μM ATP
T4 construct: full-length human kinases from Carna Biosciences; purchased Carna Biosciences 04-131
T4 sequence (Q9Y463 whole entry): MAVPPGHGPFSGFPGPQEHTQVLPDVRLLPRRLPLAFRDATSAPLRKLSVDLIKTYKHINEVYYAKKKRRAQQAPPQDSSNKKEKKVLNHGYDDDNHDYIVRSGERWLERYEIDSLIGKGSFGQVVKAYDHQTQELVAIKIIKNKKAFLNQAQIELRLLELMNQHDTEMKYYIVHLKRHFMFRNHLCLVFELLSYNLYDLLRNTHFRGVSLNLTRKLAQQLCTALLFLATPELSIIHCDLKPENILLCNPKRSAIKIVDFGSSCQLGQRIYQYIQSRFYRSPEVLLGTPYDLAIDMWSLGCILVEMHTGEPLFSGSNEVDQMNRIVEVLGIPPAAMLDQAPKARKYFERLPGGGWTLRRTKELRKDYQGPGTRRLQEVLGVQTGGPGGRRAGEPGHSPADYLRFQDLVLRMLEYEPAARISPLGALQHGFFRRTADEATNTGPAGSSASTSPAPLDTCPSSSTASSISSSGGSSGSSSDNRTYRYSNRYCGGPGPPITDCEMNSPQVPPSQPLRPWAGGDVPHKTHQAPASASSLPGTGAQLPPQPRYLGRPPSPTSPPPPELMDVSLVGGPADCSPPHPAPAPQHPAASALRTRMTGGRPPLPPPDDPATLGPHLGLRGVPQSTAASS
Method in brief: as §1

[6] = target: T5, CDK9 (Homo sapiens, UniProt P50750); experiment: Kinase TR-FRET assay, CDK9; format: biochemical; details: full-length human kinase, 10 μM ATP
T5 construct: full-length human kinases from Carna Biosciences; purchased Carna Biosciences 04-110
T5 sequence (P50750 whole entry): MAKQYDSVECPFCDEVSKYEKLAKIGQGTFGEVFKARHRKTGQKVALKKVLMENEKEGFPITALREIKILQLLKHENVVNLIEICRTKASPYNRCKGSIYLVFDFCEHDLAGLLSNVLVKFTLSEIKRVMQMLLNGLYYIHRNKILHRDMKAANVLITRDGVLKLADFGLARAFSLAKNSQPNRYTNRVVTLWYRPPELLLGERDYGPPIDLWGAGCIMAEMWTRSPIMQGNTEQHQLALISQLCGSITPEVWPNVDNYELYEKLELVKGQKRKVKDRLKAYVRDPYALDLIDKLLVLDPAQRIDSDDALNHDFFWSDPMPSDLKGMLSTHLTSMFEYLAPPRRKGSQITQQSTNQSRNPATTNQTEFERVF
T5 sequence (O60563 whole entry partner): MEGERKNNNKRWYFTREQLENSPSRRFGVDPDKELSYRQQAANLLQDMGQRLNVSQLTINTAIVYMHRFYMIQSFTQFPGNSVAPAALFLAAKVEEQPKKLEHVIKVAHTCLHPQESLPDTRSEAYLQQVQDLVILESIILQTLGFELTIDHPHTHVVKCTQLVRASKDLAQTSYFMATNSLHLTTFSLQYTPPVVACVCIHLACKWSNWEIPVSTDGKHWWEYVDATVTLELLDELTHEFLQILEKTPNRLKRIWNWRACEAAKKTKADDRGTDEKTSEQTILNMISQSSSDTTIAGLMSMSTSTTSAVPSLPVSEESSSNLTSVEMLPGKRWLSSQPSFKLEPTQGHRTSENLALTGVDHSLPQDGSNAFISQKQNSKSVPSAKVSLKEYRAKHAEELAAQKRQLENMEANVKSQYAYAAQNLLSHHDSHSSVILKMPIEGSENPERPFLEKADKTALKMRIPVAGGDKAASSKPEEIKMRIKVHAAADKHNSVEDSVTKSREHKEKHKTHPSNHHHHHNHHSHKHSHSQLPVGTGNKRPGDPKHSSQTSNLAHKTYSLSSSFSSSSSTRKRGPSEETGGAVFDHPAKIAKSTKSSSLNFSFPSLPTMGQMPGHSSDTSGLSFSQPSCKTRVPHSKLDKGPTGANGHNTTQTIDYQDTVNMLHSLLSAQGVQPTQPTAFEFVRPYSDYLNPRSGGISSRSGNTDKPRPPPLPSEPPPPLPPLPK
Experimental: Inhibition of the enzymatic activity of human kinases was evaluated in a Time-Resolved Fluorescence Resonance Energy Transfer (TR-FRET) assay in 384-well reaction plates. In this assay, full-length human kinases from Carna Biosciences—DYRK1A (NM_001396, ref. 04-130; 2.0 ng/μl), DYRK1B (NM_004714, ref. 04-131; 1.2 ng/p), CLK1 (NM_001162407, ref. 04-126; 0.7 ng/μl), CDK9 (NM_001261, ref. 04-110; 0.9 ng/μl), or GSK3β (NM_001146156, ref. 04-141; 2.0 ng/μl—were incubated for 40 minutes (DYRK1A and DYRK1B) or 100 minutes (CLK1, CDK9 and GSK3β) at room temperature with ATP (Sigma A2383, 10 μM) and a ULight™-labelled human Myelin Basic Protein (MBP) peptide substrate (Perkin Elmer TRF0109, 100 nM) in a reaction buffer composed of 50 mM HEPES pH7.4, 1 mM EGTA, 10 mM MgCl2, 2 mM DTT and 0.01% Tween20. Test compounds of the invention were added in reaction buffer at a range of concentrations from 0.1 nM to 30 μM. Following addition of EDTA (Sigma E7889, 10 mM) to stop the reaction, Europium-labelled mouse monoclonal antibody recognizing phospho-Thr232 in MBP (Perkin Elmer TRF0201, 1 nM) was added. After one hour, the reaction plates were read using a fluorescence reader (EnVision®, Perkin Elmer) at 620 nm and 665 nm (excitation at 340 nm); when the Europium donor fluorophore is excited by light at 340 nm, an energy transfer (620 nm) to the acceptor occurs, which will then emit light at 665 nm.

SMILES: Cc1nc2ccc(-c3cc(N)nc(N)c3)nc2n1C[C@@H]1C[C@H]1c1ccccc1 (single isomer, unassigned) [Example 110]
- IC50 [1]: 0.042 µM
- IC50 [2]: 0.019 µM
- IC50 [3]: 0.02 µM

SMILES: Cc1nc2ccc(-c3cc(N)nc(N)c3)nc2n1CCC1CCOCC1 [Example 78, 4-{2-methyl-3-[2-(tetrahydro-2H-pyran-4-yl)ethyl]-3H-imidazo[4,5-b]pyridin-5-yl}pyridine-2,6-diamine]
- IC50 [1]: 0.133 µM
- IC50 [2]: 0.025 µM
- IC50 [3]: 0.018 µM

SMILES: Cc1nc2ccc(-c3cc(N)nc(N)c3)nc2n1CCc1ccccc1C(F)(F)F [Example 79, 4-(2-methyl-3-{2-[2-(trifluoromethyl)phenyl]ethyl}-3H-imidazo[4,5-b]pyridin-5-yl)pyridine-2,6-diamine]
- IC50 [1]: 0.068 µM
- IC50 [2]: 0.021 µM
- IC50 [3]: 0.014 µM

SMILES: COc1ccccc1CCn1c(C)nc2ccc(-c3cc(N)nc(N)c3)nc21 [Example 81, 4-{3-[2-(2-methoxyphenyl)ethyl]-2-methyl-3H-imidazo[4,5-b]pyridin-5-yl}pyridine-2,6-diamine]
- IC50 [1]: 0.094 µM
- IC50 [2]: 0.021 µM
- IC50 [3]: 0.015 µM

SMILES: CCOc1cccc(CCn2c(C)nc3ccc(-c4cc(N)nc(N)c4)nc32)c1 [Example 90, 4-{3-[2-(3-ethoxyphenyl)ethyl]-2-methyl-3H-imidazo[4,5-b]pyridin-5-yl}pyridine-2,6-diamine]
- IC50 [1]: 0.129 µM
- IC50 [2]: 0.015 µM
- IC50 [3]: 0.016 µM

SMILES: Cc1nc2ccc(-c3cc(N)nc(N)c3)nc2n1CC1CC1c1ccccc1 (stereo not drawn) [Example 97, 4-{2-methyl-3-[(2-phenylcyclopropyl)methyl]-3H-imidazo[4,5-b]pyridin-5-yl}pyridine-2,6-diamine]
- IC50 [1]: 0.097 µM
- IC50 [2]: 0.015 µM
- IC50 [3]: 0.021 µM

SMILES: Cc1nc2ccc(-c3cc(N)nc(N)c3)nc2n1C1CC(c2ccccc2)C1 (stereo not drawn) [Example 100, 4-[2-methyl-3-(3-phenylcyclobutyl)-3H-imidazo[4,5-b]pyridin-5-yl]pyridine-2,6-diamine]
- IC50 [1]: 0.006 µM
- IC50 [2]: 0.006 µM
- IC50 [3]: 0.014 µM

SMILES: Cc1nc2ccc(-c3cc(N)nc(N)c3)nc2n1CCC(F)(F)F [Example 108, 4-[2-methyl-3-(3,3,3-trifluoropropyl)-3H-imidazo[4,5-b]pyridin-5-yl]pyridine-2,6-diamine]
- IC50 [1]: 0.109 µM
- IC50 [2]: 0.017 µM
- IC50 [3]: 0.026 µM

SMILES: CCCCc1nc2ccc(-c3cc(N)nc(N)c3)nc2n1C1CCCC1 [Example 145, 4-(2-butyl-3-cyclopentyl-3H-imidazo[4,5-b]pyridin-5-yl)pyridine-2,6-diamine]
- IC50 [1]: 0.171 µM
- IC50 [2]: 0.03 µM
- IC50 [3]: 0.115 µM

SMILES: CCc1nc2ccc(-c3cc(N)nc(N)c3)nc2n1C1CCCC1 [Example 156, 4-(3-cyclopentyl-2-ethyl-3H-imidazo[4,5-b]pyridin-5-yl)pyridine-2,6-diamine]
- IC50 [1]: 0.151 µM
- IC50 [4]: 0.013 µM
- IC50 [5]: 0.016 µM
- IC50 [6]: 0.554 µM
- IC50 [2]: 0.017 µM

SMILES: Cc1nc2ccc(-c3cc(N)nc(N)c3)nc2n1CCOc1ccc(F)cc1 [Example 198, 4-{3-[2-(4-fluorophenoxy)ethyl]-2-methyl-3H-imidazo[4,5-b]pyridin-5-yl}pyridine-2,6-diamine]
- IC50 [1]: 0.092 µM
- IC50 [2]: 0.025 µM
- IC50 [3]: 0.017 µM

SMILES: Cc1nc2ccc(-c3cc(N)nc(N)c3)nc2n1CCOc1ccccn1 [Example 217, 4-{2-methyl-3-[2-(pyridin-2-yloxy)ethyl]-3H-imidazo[4,5-b]pyridin-5-yl}pyridine-2,6-diamine]
- IC50 [1]: 0.089 µM
- IC50 [4]: 0.006 µM
- IC50 [5]: 0.008 µM
- IC50 [6]: 0.881 µM
- IC50 [2]: 0.01 µM

SMILES: C=CCn1c(C#N)nc2ccc(-c3cc(N)nc(N)c3)nc21 [Example 225, 5-(2,6-diaminopyridin-4-yl)-3-(prop-2-en-1-yl)-3H-imidazo[4,5-b]pyridine-2-carbonitrile]
- IC50 [2]: 0.012 µM
- IC50 [3]: 0.021 µM
